Earlier results on 1 compound are cited in patent publication US20140199433A1, “POLYDIORGANOSILOXANE-ENCAPSULATED ACTIVE INGREDIENT, METHOD FOR THE PREPARATION THEREOF, AND CHEWING GUM COMPRISING SAME” (Intercontinental Great Brands LLC, priority 2011, published 2014).

The conditions of the data set: 20° C. and one atmosphere.

In the case of `O=C(O)CC(O)C(=O)O` (stereo not shown) [malic acid], the water solubility result is recorded as “about 588 grams per liter”.
